Experiment [1] addresses T1, human glucagon receptor (Homo sapiens (Human), UniProt P47871). Nature of the experiment: Human Glucagon SPA Assay. To be noted: membrane from chem-1 cells stably transfected with the human glucagon receptor; 125 pM [125I]Glucagon-Cex; Ki by Cheng-Prusoff equation; read-out: Binding Ki. As to the method:
The Glucagon SPA assay is used to determine the ability of test compounds to block the binding of glucagon-cex to the glucagon receptor. Test compounds are re-suspended and serially diluted in 100% DMSO. 1 ul of test compound at the desired concentrations is spotted into the appropriate wells of 96 well low binding white clear bottom plate (Corning). 1 ul of DMSO is spotted into total binding wells. 1 ul of a known glucagon antagonist at a concentration of 20 uM is added to non specific binding wells. […] All assay ingredients with the exception of test compounds are re-suspended in the following buffer; 50 mM Hepes pH 7.4; 5 mM MgCl2; 1 mM CaCl; 5% glycerol and 0.2% BSA. Following a 6-10 hr incubation at room temperature the amount of hot ligand bound to the cell membranes is determined by reading the plates on a Wallac Trilux radioactive emission detector. Data is analyzed using Pfizer's Data analysis program. IC50 values are then determined from the generated sigmoidal dose response curves. Ki values are calculated using Cheng-Prusoff equation.

For experiment [2], the target named is T1, human glucagon receptor. Nature of the experiment: Glucagon cAMP Assay. To be noted: CHOK1 cells stably transfected with the human glucagon receptor; 100 pM glucagon challenge; Kb from IC50 by modified Cheng-Prusoff equation. In kind it is cell-based. As to the method:
The Cisbio cAMP detection assay is used to determine the ability of punitive glucagon antagonist to block glucagon induced cAMP production. Potential glucagon antagonists are re-suspended and diluted in 100% DMSO. Prior to use in the Glucagon cAMP assay 100×DMSO compound stocks are diluted 20× with DMEM-F12 media (Invitogen) containing either 0.1% or 4% BSA. 2 uls of 5× compound stocks are spotted into the appropriate wells of low binding white solid bottom 384 well plates (Corning). 2 uls of 5% DMSO or known glucagon antagonist are added to each plate to define the assay window. CHOK1 cells stably transfected with the human glucagon receptor are removed from culture flasks with cell dissociation buffer. Cell pellets are re-suspended, at a concentration of 8.3e^5 cells/ml in DMEM-F12 with or without 4% BSA and 200 uM IBMX. 6 uls of cell suspensions are added to the assay plates. Plates are incubated for 20 min at room temperature prior to the addition of a 100 pM challenge dose of glucagon. On a separate plate glucagon dose response curves are run to determine the EC50 of glucagon. After a 30 min room temperature incubation the reaction is terminated by the addition of lysis buffer containing the cAMP detection reagents. Plates are incubated for an additional 60 min at room temperature prior to being read on the Perkin Elmer fluorescent plate reader. Raw is converted to nM of cAMP produced based on a cAMP standard curve. Converted data is then analyzed using the Pfizer data analysis program. IC50 values are determined from the generated sigmoidal dose response curves. Kb values are the calculated using a modified Cheng-Prusoff equation.

pKi: −log10 of the molar value.

In general, pKi refers to the Ki on a negative log10 scale, so that one unit is a factor of ten.

T1 sequence (P47871 26-477): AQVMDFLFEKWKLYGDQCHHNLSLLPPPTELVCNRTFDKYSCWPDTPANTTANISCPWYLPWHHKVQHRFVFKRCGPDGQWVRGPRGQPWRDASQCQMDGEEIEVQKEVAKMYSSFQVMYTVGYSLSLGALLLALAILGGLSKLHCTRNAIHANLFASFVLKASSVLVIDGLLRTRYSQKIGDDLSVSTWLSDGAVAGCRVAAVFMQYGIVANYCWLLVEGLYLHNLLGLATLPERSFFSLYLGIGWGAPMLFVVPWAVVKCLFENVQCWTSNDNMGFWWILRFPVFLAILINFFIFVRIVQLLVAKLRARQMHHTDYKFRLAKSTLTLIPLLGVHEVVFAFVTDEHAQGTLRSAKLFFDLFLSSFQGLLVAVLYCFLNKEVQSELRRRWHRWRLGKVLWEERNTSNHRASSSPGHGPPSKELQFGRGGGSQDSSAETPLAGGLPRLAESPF

Take `Cc1c(NC(CC(C)C)c2ccc(C(=O)NCCC(=O)O)cc2)cnc2ccccc12` (stereo not drawn) [Example 18, (+\−)-3-(4-(3-methyl-1-(4-methylquinolin-3-ylamino)butyl)benzamido)propanoic acid]: at human glucagon receptor [1], the pKi was 6.96. For the same molecule, the Kb at human glucagon receptor [2] came out at 100 nM. Consider `Cc1cc2ccccc2nc1NC(CC(C)C)c1ccc(C(=O)NCCC(=O)O)cc1` (racemic) [Example 11, (+/−)-3-{4-[3-methyl-1-(3-methyl-quinolin-2-ylamino)-butyl]-benzoylamino}-propionic acid], for which the pKi at human glucagon receptor [1] was 7.00. This molecule also gave a Kb on human glucagon receptor [2] of 91 nM. Taken in the same sequence, the figures for `CC(C)CC(Nc1cnc2ccccc2c1)c1ccc(C(=O)NCCC(=O)O)cc1` (racemic) [Example 3, (+/−)3-{4-[3-methyl-1-(quinolin-3-ylamino)-butyl]-benzoylamino}-propionic acid] were 6.62 and 270 nM.

Molecule `CC(C)CC(Nc1ncc2ccccc2n1)c1ccc(C(=O)NCCC(=O)O)cc1` (racemic) [Example 14, (+/−)-3-{4-[3-methyl-1-(quinazolin-2-ylamino)-butyl]-benzoylamino}-propionic acid] came in with a Kb on human glucagon receptor [2] of 3100 nM. In the case of `CC(C)CC(Nc1ncc2ccc(F)cc2n1)c1ccc(C(=O)NCCC(=O)O)cc1` (racemic) [Example 4, (+/−)-3-{4-[1-(7-fluoro-quinazolin-2-ylamino)-3-methyl-butyl]-benzoylamino}-propionic acid], the pKi on human glucagon receptor [1] is 5.13. The molecule further returned a Kb at human glucagon receptor [2] of 5100 nM. As for `CC(C)CC(Nc1ccc2ccc(C(F)(F)F)cc2n1)c1ccc(C(=O)NCCC(=O)O)cc1` (racemic) [Example 15, (+/−)3-(4-(3-methyl-1-(7-(trifluoromethyl)quinolin-2-ylamino)butyl)benzamido)propanoic acid], the pKi at human glucagon receptor [1] was 6.32. At human glucagon receptor [2], this molecule had a Kb of 1100 nM. Consider `Cc1cc(NC(CC(C)C)c2ccc(C(=O)NCCC(=O)O)cc2)nc2ccccc12` (racemic) [Example 10, (+/−)-3-{4-[3-methyl-1-(4-methyl-quinolin-2-ylamino)-butyl]-benzoylamino}-propionic acid], for which the pKi at human glucagon receptor [1] was 6.70. For the same molecule, at human glucagon receptor [2], the Kb came out at 220 nM. Taken in the same sequence, the figures for `Cc1nc2ccccc2cc1NC(CC(C)C)c1ccc(C(=O)NCCC(=O)O)cc1` (stereo not drawn) [Example 17, (+\−)-3-(4-(3-methyl-1-(2-methylquinolin-3-ylamino)butyl)benzamido)propanoic acid] were 6.44 and 880 nM. Regarding `Cc1cc(NC(CC(C)C)c2ccc(C(=O)NCCC(=O)O)cc2)nc2cc(F)ccc12` (racemic) [Example 12, (+/−)-3-{4-[1-(7-fluoro-4-methyl-quinolin-2-ylamino)-3-methyl-butyl]-benzoylamino}-propionic acid], the pKi at human glucagon receptor [1] was 6.62. Moreover, the Kb on human glucagon receptor [2] came out at 310 nM. For the molecule `CC(C)CC(Nc1cnc2ccccc2n1)c1ccc(C(=O)NCCC(=O)O)cc1` (racemic) [Example 7, (+/−)-3-{4-[3-methyl-1-(quinoxalin-2-ylamino)-butyl]-benzoylamino}-propionic acid], the Kb on human glucagon receptor [2] was found to be 1000 nM.

On human glucagon receptor [2], `CC1(C)CC(C(Nc2cnc3ccccc3c2)c2ccc(C(=O)NCCC(=O)O)cc2)C1` (stereo not drawn) [Example 24, 3-(4-((3,3-dimethylcyclobutyl)(quinolin-3-ylamino)methyl)benzamido)propanoic acid] came in with a Kb of 140 nM.

Regarding `Cc1cc2cc(F)ccc2nc1NC(c1ccc(C(=O)NCCC(=O)O)cc1)C1CC(C)(C)C1` (racemic) [Example 20, (+/−)-3-{4-[(3,3-dimethyl-cyclobutyl)-(6-fluoro-3-methyl-quinolin-2-ylamino)-methyl]-benzoylamino}-propionic acid], the pKi at human glucagon receptor [1] is 7.41. Besides, the Kb on human glucagon receptor [2] was 64 nM. Taken in the same sequence, the figures for `Cc1cc2ccccc2nc1NC(CC(C)C)c1ccc(C(=O)NCCC(=O)O)cc1` (single isomer, unassigned; isomer 1) [Example 30, 3-(4-(3-methyl-1-((3-methylquinolin-2-yl)amino)butyl)benzamido)propanoic acid, Isomer 1] were 7.12 and 69 nM.

Consider `Cc1ccc2ncc(NC(CC(C)C)c3ccc(C(=O)NCCC(=O)O)cc3)cc2c1` (stereo not drawn) [Example 27, N-(4-{3-methyl-1-[(6-methylquinolin-3-yl)amino]butyl}benzoyl)-beta-alanine], for which the pKi on human glucagon receptor [1] is 6.80. On human glucagon receptor [2], the Kb was determined as 250 nM.

As for `CC(C)CC(Nc1ccc2ccccc2n1)c1ccc(C(=O)NCCC(=O)O)cc1` (racemic) [Example 5, (+/−)-3-{4-[3-methyl-1-(quinolin-2-ylamino)-butyl]-benzoylamino}-propionic acid], at human glucagon receptor [1], the pKi is 6.34. For the same molecule, at human glucagon receptor [2], the Kb was determined as 380 nM.

In turn, `Cc1cc2ccccc2nc1NC(c1ccc(C(=O)NCCC(=O)O)cc1)C1CC(C)(C)C1` (single isomer, unassigned; isomer 2) [Example 33, 3-{4-[(3,3-dimethyl-cyclobutyl)-(3-methyl-quinolin-2-ylamino)-methyl]-benzoylamino}-propionic acid, isomer 2] returned a Kb at human glucagon receptor [2] of 1820 nM. Turning to `Cc1cc2ccccc2nc1NC(c1ccc(C(=O)NCCC(=O)O)cc1)C1CC(C)(C)C1` (racemic) [Example 19, (+/−)-3-{4-[(3,3-dimethyl-cyclobutyl)-(3-methyl-quinolin-2-ylamino)-methyl]-benzoylamino}-propionic acid], the negative-log Ki (pKi) at human glucagon receptor [1] is 7.13. The molecule further yielded a Kb on human glucagon receptor [2] of 64 nM.

Regarding `O=C(O)CCNC(=O)c1ccc(C(CCC(F)(F)F)Nc2cnc3ccccc3c2)cc1` (racemic) [Example 29, (+/−)-3-(4-(4,4,4-trifluoro-1-(quinolin-3-ylamino)butyl)benzamido)propanoic acid], the pKi at human glucagon receptor [1] was 6.03. The Kb at human glucagon receptor [2] turned out to be 930 nM. In the case of `CCC[C@H](Nc1nc2ccccc2cc1C)c1ccc(C(=O)NCCC(=O)O)cc1` [Example 2, (−)-3-(4-(1-((3-Methylquinolin-2-yl)amino)butyl)benzamido)propanoic acid], on human glucagon receptor [1], the pKi was 6.55. On human glucagon receptor [2], this molecule displayed a Kb of 520 nM. As to `CCC[C@@H](Nc1nc2ccccc2cc1C)c1ccc(C(=O)NCCC(=O)O)cc1` [Example 1, (+)-3-(4-(1-((3-Methylquinolin-2-yl)amino)butyl)benzamido)propanoic acid], the pKi at human glucagon receptor [1] is 6.76. At human glucagon receptor [2], this molecule registered a Kb of 110 nM. Taken in the same sequence, the figures for `Cc1cc2ccccc2nc1NC(c1ccc(C(=O)NCCC(=O)O)cc1)C1CC(C)(C)C1` (single isomer, unassigned; isomer 1) [Example 32, 3-{4-[(3,3-dimethyl-cyclobutyl)-(3-methyl-quinolin-2-ylamino)-methyl]-benzoylamino}-propionic acid, isomer 1] were 7.28 and 23 nM. For `Cc1cc2cc(F)ccc2nc1NC(c1ccc(C(=O)NCCC(=O)O)cc1)C1CC(C)(C)C1` (single isomer, unassigned; isomer 2) [Example 35, 3-{4-[(3,3-dimethyl-cyclobutyl)-(6-fluoro-3-methyl-quinolin-2-ylamino)-methyl]-benzoylamino}-propionic acid, isomer 2], on human glucagon receptor [1], the pKi was 7.85. The same molecule registered a Kb on human glucagon receptor [2] of 33 nM. For the molecule `CC1(C)CC(C(Nc2cnc3ccc(F)cc3c2)c2ccc(C(=O)NCCC(=O)O)cc2)C1` (racemic) [Example 23, (+/−)3-(4-((3,3-dimethylcyclobutyl)(6-fluoroquinolin-3-ylamino)methyl)benzamido)propanoic acid], on human glucagon receptor [1], the pKi was 7.30. In addition, the Kb on human glucagon receptor [2] is 63 nM. Taken in the same sequence, the figures for `CC1(C)CC(C(Nc2cnc3cc(F)ccc3c2)c2ccc(C(=O)NCCC(=O)O)cc2)C1` (racemic) [Example 22, (+/−)3-(4-((3,3-dimethylcyclobutyl)(7-fluoroquinolin-3-ylamino)methyl)benzamido)propanoic acid] were 7.60 and 47 nM. As for `Cc1cc2cc(F)ccc2nc1NC(c1ccc(C(=O)NCCC(=O)O)cc1)C1CC(C)(C)C1` (single isomer, unassigned; isomer 1) [Example 34, 3-{4-[(3,3-dimethyl-cyclobutyl)-(6-fluoro-3-methyl-quinolin-2-ylamino)-methyl]-benzoylamino}-propionic acid, isomer 1], the Kb on human glucagon receptor [2] stood at 1180 nM.

The values are drawn from patent US8927577B2, “Quinolinyl glucagon receptor modulators” (Pfizer Inc., priority 2011, dated 2015).
